Reference: US9802960B2 (MILLENNIUM PHARMACEUTICALS, INC., priority 2014, dated 2017)

These compounds were tested against Human VPS34 (Homo sapiens (Human), UniProt Q8NEB9) (assay: Human VPS34 enzyme assay (Adapta TR-FRET)). Conditions: compound concentration 1.11 μM; read-out: Percent Inhibition.
Chain of Human VPS34 (Q8NEB9 whole entry): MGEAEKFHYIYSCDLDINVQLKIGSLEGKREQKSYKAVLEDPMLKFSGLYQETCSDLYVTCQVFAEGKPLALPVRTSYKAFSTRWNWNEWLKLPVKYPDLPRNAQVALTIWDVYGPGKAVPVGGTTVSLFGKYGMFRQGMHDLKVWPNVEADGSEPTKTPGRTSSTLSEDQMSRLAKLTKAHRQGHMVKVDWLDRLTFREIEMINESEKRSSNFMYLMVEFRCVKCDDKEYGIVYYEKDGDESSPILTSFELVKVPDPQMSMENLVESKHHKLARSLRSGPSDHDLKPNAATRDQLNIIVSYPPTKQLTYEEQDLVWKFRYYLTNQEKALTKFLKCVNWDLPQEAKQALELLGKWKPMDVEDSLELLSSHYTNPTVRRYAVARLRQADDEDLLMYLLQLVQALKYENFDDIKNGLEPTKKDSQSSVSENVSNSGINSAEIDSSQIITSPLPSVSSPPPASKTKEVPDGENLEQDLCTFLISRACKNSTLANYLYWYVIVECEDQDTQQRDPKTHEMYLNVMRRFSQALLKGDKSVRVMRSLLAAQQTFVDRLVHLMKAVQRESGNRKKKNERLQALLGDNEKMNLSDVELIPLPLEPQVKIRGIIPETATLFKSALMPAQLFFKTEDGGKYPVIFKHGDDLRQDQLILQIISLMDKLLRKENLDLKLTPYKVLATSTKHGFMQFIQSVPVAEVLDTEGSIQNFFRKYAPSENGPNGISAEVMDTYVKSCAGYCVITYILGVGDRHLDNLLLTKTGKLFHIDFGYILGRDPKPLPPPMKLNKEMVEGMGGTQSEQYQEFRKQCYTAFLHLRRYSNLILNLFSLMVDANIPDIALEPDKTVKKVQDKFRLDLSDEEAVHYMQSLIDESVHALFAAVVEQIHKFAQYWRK
Type: biochemical
For `CC(=O)Nc1cc(-c2cnc3c(c2)S(=O)(=O)N(C24CC(C2)C4)CCO3)ccn1` [Compound I-376, N-{4-[2-(bicyclo[1.1.1]pent-1-yl)-1,1-dioxido-3,4-dihydro-2H-pyrido[2,3-b][1,4,5]oxathiazepin-8-yl]pyridin-2-yl}acetamide], the inhibition at 1.11 µM was 94%.
`CC(=O)Nc1cc(-c2cnc(C)c(NS(=O)(=O)c3cccc(F)c3F)c2)ccn1` [Compound I-377, N-(5-{[(2,3-difluorophenyl)sulfonyl]amino}-6-methyl-3,4′-bipyridin-2′-yl)acetamide] gave an inhibition at 1.11 µM of 95%.
In the case of `Cc1nccc(Nc2cc(-c3cnc4c(c3)C(=O)N(Cc3ccccc3)CC4)ccn2)n1` [Compound I-378, 6-benzyl-3-[2-[(2-methylpyrimidin-4-yl)amino]-4-pyridyl]-7,8-dihydro-1,6-naphthyridin-5-one], the inhibition at 1.11 µM is reported as 66%.
`Cc1nccc(Nc2cc(-c3cnc(C)c(OCCN(C)C)c3)ccn2)n1` [Compound I-379, 5-[2-(dimethylamino)ethoxy]-6-methyl-N-(2-methylpyrimidin-4-yl)-3,4′-bipyridin-2′-amine] was tested, and the inhibition at 1.11 µM was 47%.
Compound `CC(=O)Nc1cc(-c2cnc(C#N)c(N3CCCCC3C)c2)ccn1` (stereo not drawn) [Compound I-380, N-[6-cyano-5-(2-methylpiperidin-1-yl)-3,4′-bipyridin-2′-yl]acetamide] has an inhibition at 1.11 µM of 95%.
With `Cc1nccc(Nc2cc(-c3cnc(Cl)c(NS(=O)(=O)N(C)C)c3C)ccn2)n1` [Compound I-381, N′-{6-chloro-4-methyl-2′-[(2-methylpyrimidin-4-yl)amino]-3,4′-bipyridin-5-yl}-N,N-dimethylsulfuric diamide] the inhibition at 1.11 µM was > 99%.
`Cc1nc(Nc2cc(-c3cnc(C)c(NS(=O)(=O)c4ccc(F)cc4F)c3)ccn2)nc(C2CC2)n1` [Compound I-382, N-{2′-[(4-cyclopropyl-6-methyl-1,3,5-triazin-2-yl)amino]-6-methyl-3,4′-bipyridin-5-yl}-2,4-difluorobenzene sulfonamide] was tested, and the inhibition at 1.11 µM was > 99%.
In the case of `CCOC(=O)Nc1cc(-c2cnc(Cl)c(NS(=O)(=O)c3ccc(F)cc3F)c2C)ccn1` [Compound I-383, ethyl (6-chloro-5-{[(2,4-difluorophenyl)sulfonyl]amino}-4-methyl-3,4′-bipyridin-2′-yl)carbamate], the inhibition at 1.11 µM is reported as 91%.
`CC(=O)Nc1cc(-c2cncc(N(CCO)S(=O)(=O)c3ccc(F)cc3F)c2)ccn1` [Compound I-384, N-(5-{[(2,4-difluorophenyl)sulfonyl](2-hydroxyethyl)amino}-3,4′-bipyridin-2′-yl)acetamide] gave an inhibition at 1.11 µM of 73%.
Compound `CC(=O)Nc1cc(-c2cnc(C)c(N3CCN(C)S3(=O)=O)c2)ccn1` [Compound I-386, N-[6-methyl-5-(5-methyl-1,1-dioxido-1,2,5-thiadiazolidin-2-yl)-3,4′-bipyridin-2′-yl]acetamide] has an inhibition at 1.11 µM of 96%.
With `CC(=O)Nc1cc(-c2cnc(C)c(N3CCCNS3(=O)=O)c2)ccn1` [Compound I-387, N-[5-(1,1-dioxido-1,2,6-thiadiazinan-2-yl)-6-methyl-3,4′-bipyridin-2′-yl]acetamide] the inhibition at 1.11 µM was > 99%.
With `Cc1ncc(-c2ccnc(NC(=O)C3CC3)c2)cc1C(=O)N(C)C12CC(C1)C2` [Compound I-388, N-(bicyclo[1.1.1]pent-1-yl)-2′-[(cyclopropylcarbonyl)amino]-N,6-dimethyl-3,4′-bipyridine-5-carboxamide] the inhibition at 1.11 µM was 98%.
For `CCOC(=O)Nc1cc(-c2cnc(C)c(NS(=O)(=O)c3ccc(F)cc3F)c2)ccn1` [Compound I-389, ethyl (5-{[(2,4-difluorophenyl)sulfonyl]amino}-6-methyl-3,4′-bipyridin-2′-yl)carbamate], the inhibition at 1.11 µM was 95%.
`Cc1ccc(Oc2cc(-c3ccnc(Nc4ccnc(C)n4)c3)cnc2C)nc1` [Compound I-390, 6-methyl-5-[(5-methylpyridin-2-yl)oxy]-N-(2-methylpyrimidin-4-yl)-3,4′-bipyridin-2′-amine] gave an inhibition at 1.11 µM of 98%.
`CC(=O)Nc1cc(-c2cncc(S(=O)(=O)N3CC(F)(F)C3)c2)ccn1` [Compound I-391, N-{5-[(3,3-difluoroazetidin-1-yl)sulfonyl]-3,4′-bipyridin-2′-yl}acetamide] was tested, and the inhibition at 1.11 µM was > 99%.
Compound `CC(=O)Nc1cc(-c2cnc(C)c(Nc3nc4ccccc4o3)c2)ccn1` [Compound I-392, N-[5-(1,3-benzoxazol-2-ylamino)-6-methyl-3,4′-bipyridin-2′-yl]acetamide] has an inhibition at 1.11 µM of 82%.
For `CC(=O)Nc1cc(-c2cncc(NS(=O)(=O)c3ccc(F)cc3F)c2Cl)ccn1` [Compound I-394, N-(4-chloro-5-{[(2,4-difluorophenyl)sulfonyl]amino}-3,4′-bipyridin-2′-yl)acetamide], the inhibition at 1.11 µM was > 99%.
For `CC(=O)Nc1cc(-c2cnc(C)c(S(N)(=O)=O)c2)ccn1` [Compound I-395, N-(6-methyl-5-sulfamoyl-3,4′-bipyridin-2′-yl)acetamide], the inhibition at 1.11 µM was > 99%.
For `CC(=O)Nc1cc(-c2cncc(S(=O)(=O)NC3CCC3)c2)ccn1` [Compound I-396, N-[5-(cyclobutylsulfamoyl)-3,4′-bipyridin-2′-yl]acetamide], the inhibition at 1.11 µM was 94%.
`CC(=O)Nc1cc(-c2cncc(N(C)C(=O)c3ccc(F)cc3F)c2)ccn1` [Compound I-397, N-(2′-acetamido-3,4′-bipyridin-5-yl)-2,4-difluoro-N-methylbenzamide] was tested, and the inhibition at 1.11 µM was 100%.
For `CC(=O)Nc1cc(-c2cnc(C)c(N(C)C(=O)c3ccc(F)cc3F)c2)ccn1` [Compound I-398, N-(2′-acetamido-6-methyl-3,4′-bipyridin-5-yl)-2,4-difluoro-N-methylbenzamide], the inhibition at 1.11 µM was 93%.
`CC(=O)Nc1cc(-c2cnc(Cl)c(NS(=O)(=O)c3ccc(Cl)cc3F)c2C)ccn1` [Compound I-399, N-(6-chloro-5-{[(4-chloro-2-fluorophenyl)sulfonyl]amino}-4-methyl-3,4′-bipyridin-2′-yl)acetamide] gave an inhibition at 1.11 µM of 100%.
In the case of `CC(=O)Nc1cc(-c2cnc(Cl)c(NS(=O)(=O)c3cc(Cl)ccc3Cl)c2C)ccn1` [Compound I-401, N-(6-chloro-5-{[(2,5-dichlorophenyl)sulfonyl]amino}-4-methyl-3,4′-bipyridin-2′-yl)acetamide], the inhibition at 1.11 µM is reported as > 99%.
Compound `Cc1nccc(Nc2cc(-c3cnc(Cl)c(C(=O)O)c3C)ccn2)n1` [Compound I-402, 6-chloro-4-methyl-2′-[(2-methylpyrimidin-4-yl)amino]-3,4′-bipyridine-5-carboxylic acid] has an inhibition at 1.11 µM of 93%.
`CC(=O)Nc1cc(-c2cnc(Cl)c(S(=O)(=O)N[C@@H](CO)c3ccccc3)c2)ccn1` [Compound I-403, N-(6-chloro-5-{[(1R)-2-hydroxy-1-phenylethyl]sulfamoyl}-3,4′-bipyridin-2′-yl)acetamide] gave an inhibition at 1.11 µM of 92%.
`CC(=O)Nc1cc(-c2cc(NS(=O)(=O)c3ccc(F)cc3F)c3ccnn3c2)ccn1` [Compound I-404, N-[4-(4-{[(2,4-difluorophenyl)sulfonyl]amino}pyrazolo[1,5-a]pyridin-6-yl)pyridin-2-yl]acetamide] was tested, and the inhibition at 1.11 µM was 94%.
`CC(=O)Nc1cc(-c2cncc(N3CCOc4cc(F)ccc4S3(=O)=O)c2)ccn1` [Compound I-405] was tested, and the inhibition at 1.11 µM was > 99%.
`Cc1nccc(Nc2cc(-c3cnc4c(c3)C(=O)NCC4)ccn2)n1` [Compound I-406, 3-[2-[(2-methylpyrimidin-4-yl)amino]-4-pyridyl]-7,8-dihydro-6H-1,6-naphthyridin-5-one] was tested, and the inhibition at 1.11 µM was 80%.
For `Cc1nccc(Nc2cc(-c3cc(NC(=O)N4CC(F)(F)C4)c4ccnn4c3)ccn2)n1` [Compound I-407, 3,3-difluoro-N-(6-{2-[(2-methylpyrimidin-4-yl)amino]pyridin-4-yl}pyrazolo[1,5-a]pyridin-4-yl)azetidine-1-carboxamide], the inhibition at 1.11 µM was 98%.
`Cc1nccc(Nc2cc(-c3cncc(C(=O)N4CC(F)(F)C4)c3)ccn2)n1` [Compound I-408, (3,3-difluoroazetidin-1-yl){2′-[(2-methylpyrimidin-4-yl)amino]-3,4′-bipyridin-5-yl}methanone] was tested, and the inhibition at 1.11 µM was > 99%.
Work on `CC(=O)Nc1cc(-c2cnc(N)c(C(=O)NC(=N)N)c2)ccn1` [Compound I-409, 2′-acetamido-6-amino-N-carbamimidoyl-3,4′-bipyridine-5-carboxamide] yielded an inhibition at 1.11 µM of 82%.
`CC(=O)Nc1cc(-c2cnc(Cl)c(S(=O)(=O)NC(C)(C)C)c2C)ccn1` [Compound I-410, N-[5-(tert-butylsulfamoyl)-6-chloro-4-methyl-3,4′-bipyridin-2′-yl]acetamide] showed an inhibition at 1.11 µM of 96%.
In the case of `CC(=O)Nc1cc(-c2cnc(C#N)c(NS(=O)(=O)c3ccc(F)cc3F)c2)ccn1` [Compound I-411, N-(6-cyano-5-{[(2,4-difluorophenyl)sulfonyl]amino}-3,4′-bipyridin-2′-yl)acetamide], the inhibition at 1.11 µM is reported as 88%.
Work on `CC(=O)Nc1cc(-c2cnc(C)c(NS(=O)(=O)CC(F)F)c2)ccn1` [Compound I-412, N-(5-{[(2,2-difluoroethyl)sulfonyl]amino}-6-methyl-3,4′-bipyridin-2′-yl)acetamide] yielded an inhibition at 1.11 µM of 97%.
With `O=C(c1cncc(-c2ccnc(Nc3ccnc(C4CC4)n3)c2)c1)N1CC(F)(F)C1` [Compound I-413] the inhibition at 1.11 µM was > 99%.
`CC(=O)Nc1cc(-c2cnc(C)c(NS(=O)(=O)c3ccc(F)cc3F)c2)cc(C)n1` [Compound I-414, N-(5-{[(2,4-difluorophenyl)sulfonyl]amino}-6,6′-dimethyl-3,4′-bipyridin-2′-yl)acetamide] showed an inhibition at 1.11 µM of 89%.
With `Cc1nccc(Nc2cc(-c3cnc(C)c(C(=O)N4CC5(COC5)C4)c3)ccn2)n1` [Compound I-415, {6-methyl-2′-[(2-methylpyrimidin-4-yl)amino]-3,4′-bipyridin-5-yl}(2-oxa-6-azaspiro[3.3]hept-6-yl)methanone] the inhibition at 1.11 µM was 82%.
`CC(=O)Nc1cc(-c2cnc(C)c(N3CC=CS3(=O)=O)c2)ccn1` [Compound I-416, N-[5-(1,1-dioxidoisothiazol-2(3H)-yl)-6-methyl-3,4′-bipyridin-2′-yl]acetamide] was tested, and the inhibition at 1.11 µM was > 99%.
With `COC(=O)Nc1cc(-c2cnc(C)c(NS(=O)(=O)c3ccc(Cl)cc3F)c2)ccn1` [Compound I-417, methyl (5-{[(4-chloro-2-fluorophenyl)sulfonyl]amino}-6-methyl-3,4′-bipyridin-2′-yl)carbamate] the inhibition at 1.11 µM was > 99%.
